Common to all, as to format: functional, cell-based
Test [1] has as its system A549. Description: Cytotoxicity was evaluated against A549 tumor cell lines; Inactive. To be noted: Homo sapiens.
The subject of test [2] is B16. The test can be described thus: Cytotoxicity was evaluated against B16 tumor cell lines; Inactive. As to conditions: Mus musculus.
The subject of test [3] is CCRF-CEM. The test can be described thus: Cytotoxicity was evaluated against CEM tumor cell lines; Inactive. As to conditions: Homo sapiens.
The subject of test [4] is NCI-H596. Description: Cytotoxicity was evaluated against H596 tumor cell lines; Inactive. As to conditions: Homo sapiens.
Test [5] has as its system NCI-H292. Description: Cytotoxicity was evaluated against H292 tumor cell lines; Inactive. To be noted: Homo sapiens.
The subject of test [6] is HL-60. Description: Cytotoxicity was evaluated against HL-60 tumor cell lines; Inactive. To be noted: Homo sapiens.
The subject of test [7] is Jurkat. Description: In vitro test for antitumor activity against human Jurkat cell line using a formazan dye (MTT) conversion assay.
In test [8] the test system is K562. The test can be described thus: Cytotoxicity was evaluated against K562 tumor cell lines; Inactive. To be noted: Homo sapiens.
The subject of test [9] is L1210. The test can be described thus: Cytotoxicity was evaluated against L1210 tumor cell lines; Inactive. To be noted: Mus musculus.
In test [10] the test system is MCF7. The test can be described thus: Cytotoxicity was evaluated against MCF-7 tumor cell lines; Inactive. As to conditions: Homo sapiens.
Test [11] relates to MOLT-4. Description: Cytotoxicity was evaluated against Molt-4 tumor cell lines; Inactive. As to conditions: Homo sapiens.
Test [12] deals with NIH3T3. Description: Cytotoxicity was evaluated against NIH3T3 tumor cell lines; Inactive. To be noted: Mus musculus.
The test system of test [13] is WI-38. The test can be described thus: Cytotoxicity was evaluated against WI38 tumor cell lines; Inactive. As to conditions: Homo sapiens.
For test [14], the system named is WIL2. The test can be described thus: Cytotoxicity was evaluated against WIL2 tumor cell lines; Inactive. As to conditions: Homo sapiens.
The subject of test [15] is A549. Description: Cytotoxicity evaluated against A549 tumor cell lines; significant activity. To be noted: Homo sapiens.
In test [16] the test system is B16. Description: Cytotoxicity was evaluated against B16 tumor cell lines; Significant activity. To be noted: Mus musculus.
The subject of test [17] is CCRF-CEM. The test can be described thus: Cytotoxicity evaluated against CEM tumor cell lines; Significant activity. To be noted: Homo sapiens.
Test [18] has as its system NCI-H596. Description: Cytotoxicity evaluated against H596 tumor cell lines; Significant activity. As to conditions: Homo sapiens.
The test system of test [19] is NCI-H292. Description: Cytotoxicity evaluated against H292 tumor cell lines; Significant activity. To be noted: Homo sapiens.
The test system of test [20] is HL-60. The test can be described thus: Cytotoxicity evaluated against HL-60 tumor cell lines; Significant activity. As to conditions: Homo sapiens.
The test system of test [21] is K562. Description: Cytotoxicity evaluated against K562 tumor cell lines; Significant activity. To be noted: Homo sapiens.
Test [22] has as its system L1210. Description: Cytotoxicity evaluated against L1210 tumor cell lines; Significant activity. As to conditions: Mus musculus.
The subject of test [23] is MCF7. The test can be described thus: Cytotoxicity evaluated against MCF-7 tumor cell lines; Significant activity. To be noted: Homo sapiens.
For test [24], the system named is MOLT-4. Description: Cytotoxicity was evaluated against Molt-4 tumor cell lines. To be noted: Homo sapiens.
Test [25] deals with NIH3T3. The test can be described thus: Cytotoxicity evaluated against NIH3T3 tumor cell lines; Significant activity. As to conditions: Mus musculus.
The test system of test [26] is WI-38. The test can be described thus: Cytotoxicity evaluated against WI38 tumor cell lines; Significant activity. To be noted: Homo sapiens.
Test [27] has as its system WIL2. The test can be described thus: Cytotoxicity evaluated against WIL2 tumor cell lines; Significant activity. To be noted: Homo sapiens.

Structures are written as SMILES. Activity calls are given as the source filed them. The rule behind the calls is not given here. Where only a bound is given, the exact number is not on record here.

In the case of `COc1ccc2c(c1)C(=O)/C(=C/c1cc(C)c(O)c(C)c1)C2`, the Cytotoxicity entry in test [1], in [2], in [3], in test [4], in test [5] and in [6] was “inactive” throughout. The Cytotoxicity result in test [8], in [9], in test [10], in test [11], in test [12] and in [13] was “inactive” each time. Moreover, the Cytotoxicity result in test [14] was “inactive”. The IC50 (commonly the concentration that inhibits the measured activity by half) in [7] is over 50 µM.

As to `COc1ccccc1/C=C1\CCc2cc(OC)c(OC)cc2C1=O`, the Cytotoxicity result in test [1], in test [2], in test [3], in test [4], in [5] and in test [6] was “inactive” each time. The Cytotoxicity result in test [8], in [9], in test [10], in test [11], in test [12] and in test [13] was “inactive” in each case. The Cytotoxicity result in [14] is “inactive”. Moreover, the IC50 in [7] is over 50 µM.

In the case of `COc1ccc2c(c1)C/C(=C\c1cc(C)c(O)c(C)c1)C2=O`, the Cytotoxicity result in test [1], in test [2], in test [3], in test [4], in [5] and in test [6] was “inactive” throughout. Besides, the Cytotoxicity entry in [8], in test [9], in test [10], in [11], in test [12] and in test [13] was “inactive” each time. In addition, the Cytotoxicity result in [14] was “inactive”. The compound further had an IC50 in test [7] of over 50 µM.

For the compound `COc1ccc(/C=C2\CCc3cc(OC)c(OC)cc3C2=O)cc1`, the Cytotoxicity entry in test [1], in test [2], in test [3], in test [4], in test [5] and in [6] was “inactive” throughout. Also, the Cytotoxicity entry in test [8], in test [9], in test [10], in [11], in [12] and in [13] was “inactive” each time. In addition, in test [14], the Cytotoxicity entry was “inactive”. In test [7], the IC50 is over 50 µM.

`COc1cc2c(cc1OC)C(=O)/C(=C/c1cc([N+](=O)[O-])ccc1O)C2`: the Cytotoxicity result in test [15], in [16], in test [17], in [18], in test [19] and in [20] was “Significant activity” in each case. Further, the Cytotoxicity entry in test [21], in test [22], in test [23], in test [24], in [25] and in test [26] was “Significant activity” each time. Besides, the Cytotoxicity entry in [27] is “Significant activity”. The IC50 in test [7] was 14.5 µM.

Regarding `CCOC(=O)COc1c(C)cc(/C=C2\Cc3cc(OC)c(OC)cc3C2=O)cc1C`, the Cytotoxicity entry in test [15], in [16], in [17], in test [18], in [19] and in test [20] was “Significant activity” each time. In addition, the Cytotoxicity entry in test [21], in test [22], in [23], in [24], in test [25] and in test [26] was “Significant activity” in each case. In test [27], the Cytotoxicity entry is “Significant activity”. This compound also gave an IC50 in test [7] of 2.2 µM.

In the case of `COc1cc(/C=C2\CCc3cc(OC)c(OC)cc3C2=O)cc(OC)c1`, the Cytotoxicity entry in [15], in test [16], in test [17], in [18], in test [19] and in test [20] was “Significant activity” throughout. Also, the Cytotoxicity result in test [21], in [22], in [23], in test [24], in test [25] and in test [26] was “Significant activity” each time. Moreover, in test [27], the Cytotoxicity entry was “Significant activity”. The compound also showed an IC50 in test [7] of 5 µM.

In the case of `COc1cc2c(cc1OC)C(=O)/C(=C/c1cc(OC)c(OC)c(OC)c1)CC2`, the Cytotoxicity entry in [15], in test [16], in test [17], in [18], in test [19] and in test [20] was “Significant activity” throughout. Moreover, the Cytotoxicity result in [21], in test [22], in [23], in [24], in test [25] and in [26] was “Significant activity” each time. The Cytotoxicity result in test [27] was “Significant activity”. Further, in [7], the half-inhibitory concentration (IC50) is over 50 µM.

In the case of `COc1cc2c(cc1OC)C(=O)/C(=C/c1cc(C)cc(C)c1)CC2`, the Cytotoxicity entry in [15], in test [16], in test [17], in test [18], in [19] and in [20] was “Significant activity” in each case. Further, the Cytotoxicity result in test [21], in [22], in test [23], in test [24], in [25] and in test [26] was “Significant activity” each time. Besides, in test [27], the Cytotoxicity result was “Significant activity”. This compound also came in with a 50% inhibitory concentration (IC50) in test [7] of 4 µM.

Turning to `COc1cc2c(cc1OC)C(=O)/C(=C/c1cc(Cl)cc(Cl)c1)CC2`, the Cytotoxicity entry in [15], in test [16], in test [17], in test [18], in test [19] and in test [20] was “Significant activity” each time. For the same compound, the Cytotoxicity entry in [21], in [22], in test [23], in test [24], in test [25] and in [26] was “Significant activity” each time. Further, in test [27], the Cytotoxicity result is “Significant activity”. The same compound gave an IC50 in [7] of 7 µM.

`COc1cc2c(cc1OC)C(=O)/C(=C/c1cccc([N+](=O)[O-])c1)CC2`: the Cytotoxicity entry in test [15], in test [16], in [17], in test [18], in [19] and in test [20] was “Significant activity” each time. For the same compound, the Cytotoxicity entry in test [21], in [22], in [23], in [24], in [25] and in test [26] was “Significant activity” throughout. Besides, in test [27], the Cytotoxicity entry is “Significant activity”. Also, it took 9 µM to reach half-maximal inhibition in test [7] (IC50).

The record behind these values is ChEMBL document CHEMBL1133412, “Rational design, synthesis and structure-activity relationships of antitumor (E)-2-benzylidene-1-tetralones and (E)-2-benzylidene-1-indanones” (Bioorg Med Chem Lett, 2000).
